Test results: article PMC3368601 (Chemistry & biology, 2011)

Molecular target: AAK1 (adaptor-associated kinase 1) (Homo sapiens, UniProt Q2M2I8)
Experiment: ADP-Glo kinase assay with recombinant AAK1 and AP2M1 peptide
Type: biochemical

Sequence of AAK1 (adaptor-associated kinase 1) (Q2M2I8 46-315 limits assumed): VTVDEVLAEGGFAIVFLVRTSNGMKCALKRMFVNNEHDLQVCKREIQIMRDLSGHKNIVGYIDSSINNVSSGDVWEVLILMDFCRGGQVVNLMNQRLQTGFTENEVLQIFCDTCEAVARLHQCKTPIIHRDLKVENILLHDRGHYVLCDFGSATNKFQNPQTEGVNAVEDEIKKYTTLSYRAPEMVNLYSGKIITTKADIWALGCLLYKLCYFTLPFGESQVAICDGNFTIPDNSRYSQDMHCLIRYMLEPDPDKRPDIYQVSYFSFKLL

COC(=O)C1(O)C[C@H]2O[C@]1(C)n1c3ccccc3c3c4c(c5c6ccccc6n2c5c31)C(=O)NC4 (stereo partly shown) [compound 1, K252a]
IC50: < 0.01 µM
